The subject of the experiment is NF-κB mediated transcription. In words: NF-κB driven β-lactamase reporter assay in ECV-304 NF-κB.βlaZ cells (AURORA CCF2 fluorescence). The format is cell-based, human. As to conditions: 10 μM compound, ECV-304 NF-κB.βlaZ cells stimulated with 10 ng/mL TNF-α or 100 pg/mL IL-1β, 6 hours at 37° C., inhibition of maximum blue/green ratio; for inhibition at 10 µM: Homo sapiens, read-out: Percent Inhibition at 10 μM. In short, it runs like this:
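Blue/green (460/530 nm, excitation 395 nm) CCF2 emission ratio quantified NF-κB-driven β-lactamase expression in the stably transfected endothelial-like ECV-304 clone 1E8.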
(A reporter such as luciferase makes a cellular process visible.)

The inhibition is how much of the control response was suppressed.

The structures appear in SMILES notation. Where two headings read alike, the source gives them in different places.

Turning to `CC(C)c1cccc(C(C)C)c1OS(=O)(=O)NC(=O)Oc1c(C(C)C)c(C(C)C)c(F)c(C(C)C)c1C(C)C` [Example 116, Carbamic acid, [[2,6-bis(1-methylethyl)phenoxy]sulfonyl]-, 4-fluoro-2,3,5,6-tetrakis(1-methylethyl)phenyl ester], the inhibition at 10 µM was less than 10%.
Still for that read-out and setting: with `CC(C)c1cc(Cl)cc(C(C)C)c1OC(=O)NS(=O)(=O)Oc1c(C(C)C)cccc1C(C)C` [Example 117, Carbamic acid, [[2,6-bis(1-methylethyl)phenoxy]sulfonyl]-, 4-chloro-2,6-bis(1-methylethyl)phenyl ester] the figure was less than 10%.
In the case of `CC[C@H](C=C[C@@H](C)[C@H]1CC[C@H]2[C@@H]3CC=C4C[C@H](OC(=O)NS(=O)(=O)Oc5c(C(C)C)cccc5C(C)C)CC[C@]4(C)[C@H]3CC[C@]12C)C(C)C` [Example 118, Stigmasta-5,22-dien-3-ol, [[2,6-bis(1-methylethyl)phenoxy]sulfonyl]-carbamate, (3α)-], under “ECV-304, 6 h”, the inhibition at 10 µM was less than 10%.
On to `Cc1cc(C(C)(C)C)c(OC(=O)NS(=O)(=O)Oc2c(C(C)C)cccc2C(C)C)c(C(C)(C)C)c1` [Example 119, Carbamic acid, [[2,6-bis(1-methylethyl)phenoxy]sulfonyl]-, 2,6-bis(1,1-dimethylethyl)-4-methylphenyl ester], for which the inhibition at 10 µM came to 56.6%.
In the case of `CC(C)c1cc(C(C)C)c(CC(=O)NS(=O)(=O)Oc2c(C(C)C)cccc2C(C)C)c(C(C)C)c1` [Example 120, Sulfamic acid, [[2,4,6-tris(1-methylethyl)phenyl]acetyl]-, 2,6-bis(1-methylethyl)phenyl ester], the inhibition at 10 µM (ECV-304, 6 h) was determined as 55%.
Take `CC[C@H](CC[C@@H](C)[C@H]1CC[C@H]2[C@@H]3CCC4C[C@H](OC(=O)NS(=O)(=O)Oc5c(C(C)C)cccc5C(C)C)CC[C@]4(C)[C@H]3CC[C@]12C)C(C)C` (stereo partly drawn) [Example 121, Stigmastan-3-ol, [[2,6-bis(1-methylethyl)phenoxy]sulfonyl]-carbamate, (3α)-]: where the note is “ECV-304, 6 h”, the inhibition at 10 µM is less than 10%.
As for `CC(C)c1cccc(C(C)C)c1CC(=O)NS(=O)(=O)Oc1c(C(C)C)cccc1C(C)C` [Example 122, Sulfamic acid, [[2,6-bis(1-methylethyl)phenyl]acetyl]-, 2,6-bis(1-methylethyl)-phenyl ester], the inhibition at 10 µM (ECV-304, 6 h) is 65.3%.
For the compound `COc1cc(C(C)C)c(OC(=O)NS(=O)(=O)Oc2c(C(C)C)cccc2C(C)C)c(C(C)C)c1` [Example 123, Carbamic acid, [[2,6-bis(1-methylethyl)phenoxy]sulfonyl]-, 4-methoxy-2,6-bis(1-methylethyl)phenyl ester], the inhibition at 10 µM was less than 10%.
For the compound `CC(C)c1cc(C(C)C)c(OC(=O)NS(=O)(=O)Oc2c(C(C)C)cccc2C(C)C)c(C(C)C)c1` [Example 124, Carbamic acid, [[2,6-bis(1-methylethyl)phenoxy]sulfonyl]-, 2,4,6-tris(1-methylethyl)phenyl ester], the inhibition at 10 µM was found to be 11.3%.
In the case of `CC(C)c1cc(C(C)C)c(OS(=O)(=O)NC(=O)Oc2c(C(C)C)cccc2C(C)C)c(C(C)C)c1` [Example 125, Carbamic acid, [[2,4,6-tris(1-methylethyl)phenoxy]sulfonyl]-, 2,6-bis(1-methylethyl)phenyl ester], the inhibition at 10 µM was found to be 11%.
On to `CC(C)c1cc(C(C)C)c(OC(=O)NS(=O)(=O)Oc2c(C(C)C)cc(C(C)C)cc2C(C)C)c(C(C)C)c1` [Example 126, Carbamic acid, [[2,4,6-tris(1-methylethyl)phenoxy]sulfonyl]-,2,4,6-tris(1-methylethyl)phenyl ester], for which the “Percent Inhibition at 10 μM” value came out at 10.02%.
The same measure, in the same setting: with `CC(C)c1cc(C(C)C)c(OS(=O)(=O)NC(=O)Oc2c(C(C)(C)C)cc(C(C)(C)C)cc2C(C)(C)C)c(C(C)C)c1` [Example 127, Carbamic acid, [[2,4,6-bis(1-methylethyl)phenoxy]sulfonyl]-, 2,4,6-tris(1,1-dimethylethyl)phenyl ester] the figure was 74.01%.
Consider `CC(C)c1cccc(C(C)C)c1OS(=O)(=O)NC(=O)Oc1c(C(C)(C)C)cc(SSc2cc(C(C)(C)C)c(O)c(C(C)(C)C)c2)cc1C(C)(C)C` [Example 128, Carbamic acid, [[2,6-bis(1-methylethyl)phenoxy]sulfonyl]-, 4-[[3,5-bis(1,1-dimethylethyl)-4-hydroxyphenyl]dithio]-2,6-bis(1,1-dimethylethyl)phenyl ester], for which the inhibition at 10 µM was less than 10%.
The same measure, in the same setting: with `CC(C)c1ccc(OC(=O)NS(=O)(=O)Oc2c(C(C)C)cccc2C(C)C)c(C(C)C)c1` [Example 129, Carbamic acid, [[2,6-bis(1-methylethyl)phenoxy]sulfonyl]-, 2,4-bis(1-methylethyl)phenyl ester] the figure was less than 10%.
On the same count and under the same terms, for `CC(C)c1cc(CN(C)C)cc(C(C)C)c1OC(=O)NS(=O)(=O)Oc1c(C(C)C)cccc1C(C)C` [Example 130, Carbamic acid, [[2,6-bis(1-methylethyl)phenoxy]sulfonyl]-, 4-[(dimethylamino)-methyl]-2,6-bis(1-methylethyl)phenyl ester] the value was less than 10%.
Take `CC(C)c1cccc(C(C)C)c1OS(=O)(=O)NC(=O)OC1C2CC3CC(C2)CC1C3` (stereo not shown) [Example 131, Carbamic acid, [[2,6-bis(1-methylethyl)phenoxy]sulfonyl]-, tricyclo[3.1.1.1^3,7]-dec-2-yl ester]: the “Percent Inhibition at 10 μM” value stood at 33.39%.
Take `CC(C)c1cc(O)cc(C(C)C)c1OC(=O)NS(=O)(=O)Oc1c(C(C)C)cccc1C(C)C` [Example 132, Carbamic acid, [[2,6-bis(1-methylethyl)phenoxy]sulfonyl]-, 4-hydroxy-2,6-bis(1-methylethyl)phenyl ester]: the inhibition at 10 µM is less than 10%.
With `CC(C)c1cccc(C(C)C)c1OS(=O)(=O)NC(=O)OC1CCCCC1` [Example 133, Carbamic acid, [[2,6-bis(1-methylethyl)phenoxy]sulfonyl]-, cyclohexyl ester], the inhibition at 10 µM (ECV-304, 6 h) was less than 10%.
For `CC(C)c1cc(-c2cc(C(C)C)c(OC(=O)NS(=O)(=O)Oc3c(C(C)C)cccc3C(C)C)c(C(C)C)c2)cc(C(C)C)c1OC(=O)NS(=O)(=O)Oc1c(C(C)C)cccc1C(C)C` [Example 134, Carbamic acid, [[2,6-bis(1-methylethyl)phenoxy]sulfonyl]-, 3,3′,5,5′-tetrakis(1-methylethyl) [1,1′-biphenyl]-4,4′-diyl ester], the “Percent Inhibition at 10 μM” value worked out at 18.39%.
`CC(C)c1cccc(C(C)C)c1OC(=O)NS(=O)(=O)Oc1c(C(C)C)cc(O)cc1C(C)C` [Example 135, Carbamic acid, [[4-hydroxy-2,6-bis(1-methylethyl)phenoxy]sulfonyl]-, 2,6-bis(1-methylethyl)phenyl ester]: the inhibition at 10 µM was less than 10%.
As to `CC(C)c1cccc(C(C)C)c1OS(=O)(=O)NC(=O)OC12CC3CC(CC(C3)C1)C2` [Example 136, Carbamic acid, [[2,6-bis(1-methylethyl)phenoxy]sulfonyl]-, tricyclo[3.3.1.1^3,7]-dec-1-yl ester], for the setting “ECV-304, 6 h”, the inhibition at 10 µM was less than 10%.
Regarding `Cc1cccc(C(C)(C)C)c1OC(=O)NS(=O)(=O)Oc1c(C(C)C)cccc1C(C)C` [Example 137, Carbamic acid, [[2,6-bis(1-methylethyl)phenoxy]sulfonyl]-, 2-(1,1-dimethylethyl)-6-methylphenyl ester], the inhibition at 10 µM is less than 10%.

For the origin of these results see US20020183384A1, “Methods of treating nuclear factor-kappa B mediated diseases and disorders” (priority 2001, published 2002).
